Assay results from US8173645B2 (Takeda San Diego, Inc., priority 2007, dated 2012).

Molecular target: T1, glucokinase (GK), residues 12-465 of the human enzyme (Homo sapiens, UniProt P35557)
T1 construct: I.D. No. 1 corresponds to residues 12-465 of glucokinase; made in house; host or cells: E. coli DH10b-Tlr
T1 sequence (P35557 with tags, fused parts or gaps isoform P35557-2): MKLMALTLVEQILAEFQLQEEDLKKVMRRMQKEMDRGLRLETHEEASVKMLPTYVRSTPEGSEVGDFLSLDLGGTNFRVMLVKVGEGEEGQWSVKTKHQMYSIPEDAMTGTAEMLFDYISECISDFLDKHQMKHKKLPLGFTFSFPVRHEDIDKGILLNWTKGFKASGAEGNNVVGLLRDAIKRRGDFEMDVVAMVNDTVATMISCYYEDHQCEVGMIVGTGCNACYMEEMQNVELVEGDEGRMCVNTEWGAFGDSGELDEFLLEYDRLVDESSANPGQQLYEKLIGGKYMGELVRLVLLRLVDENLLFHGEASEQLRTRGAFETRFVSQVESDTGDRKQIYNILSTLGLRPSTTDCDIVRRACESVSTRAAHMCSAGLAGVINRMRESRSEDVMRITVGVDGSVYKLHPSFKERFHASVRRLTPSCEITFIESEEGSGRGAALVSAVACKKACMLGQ
Experiment: Enzymatic glucokinase activity assay (KinaseGlo luminescence, ATP consumption)
Type: biochemical
Settings: 5 μM ATP, 5 mM Glucose; for EC50: GK activation, Kact = concentration giving 50% of the maximal increase in GK activity, read-out: pKact; for Emax: calculated maximal gain in GK enzyme activity at a saturating concentration of the compound, read-out: % ACTmax
Description: The activity of compounds as glucokinase activators may be assayed in vitro, in vivo or in a cell line. Provided below is an enzymatic glucokinase activity assay.
Purified glucokinase may be obtained as follows. DNA encoding residues 12-465 of the full-length sequence of the human enzyme may be amplified by PCR and cloned into the HindIII and EcoRI sites of pFLAG-CTC (Sigma). SEQ. I.D. No. 1 corresponds to residues 12-465 of glucokinase.
The expression of recombinant glucokinase protein may be carried out by transformation and growth of DH10b-Tlr E. coli cells incorporating the (pFLAG-CTC) plasmid in LB media. Protein expression can be induced in this system by the addition of IPTG to the culture medium.
Recombinant protein may be isolated from cellular extracts by passage over Sepharose Q Fast Flow resin (Pharmacia). This partially purified GK extract may then be further purified by a second passage over Poros HQ 10 (Applied Biosystems). The purity of GK may be determined on denaturing SDS-PAGE gel. Purified GK may then be concentrated to a final concentration of 20.0 mg/ml. After flash freezing in liquid nitrogen, the proteins can be stored at −78° C. in a buffer containing 25 mM TRIS-HCl pH 7.6, 50 mM NaCl, and 0.5 mM TCEP.
The activation properties of compounds for GK may be determined using a black 384-well-plate format under the following reaction conditions: 25 mM Hepes pH 7.2, 25 mM NaCl, 10 mM MgCl2, 0.01% Brij35, 1 mM DTT, 5 μM ATP, 5 mM Glucose 2% DMSO. The amount of ATP consumed may be determined quantitatively by addition of equal volume of luciferase reagent (luciferase+beetle luciferin—KinaseGlo Luminescent Kinase Assay kit from Promega). The luminescence intensity may be measured by using the Analyst HT from LJL Biosystems.
The assay reaction may be initiated as follows: 4 μl of substrate mixture (12.5 μM ATP and 12.5 mM Glucose) was added to each well of the plate, followed by the addition of 2 μl of activator (2 fold serial dilutions for 11 data points for each activator) containing 10% DMSO. 4 μL of 1.25 nM GK solution may be added to initiate the reaction. The reaction mixture may then be incubated at room temperature for 60 min, and quenched and developed by addition of 10 μL of luciferase reagent. Luminescence intensities of the resulting reaction mixtures may be measured after a 10 min incubation at room temperature. The luminescence intensity may be measured by using the Analyst HT from LJL Biosystems.
pKact and % ACTmax values may be calculated by non-linear curve fitting of the compound concentrations and luminescence intensities to a standard inhibition/activation equation.

Row | Structure (SMILES) | EC50 | Emax
1 | O=C(Nc1ncc(Cl)s1)C(CC1CCCC1)N1CCN(S(=O)(=O)C2CC2)CC1=O (centres unmarked) [Example 16, N-(5-chlorothiazol-2-yl)-3-cyclopentyl-2-(4-(cyclopropylsulfonyl)-2-oxopiperazin-1-yl)propanamide] | ≤ 0.631 µM | ≥ 119%
2 | NS(=O)(=O)c1ccc(NC(=S)N2CCN([C@@H](CC3CCCCC3)C(=O)Nc3nccs3)C(=O)C2)cc1 [Example 134, (S)-3-cyclohexyl-2-(2-oxo-4-(4-sulfamoylphenylcarbamothioyl)piperazin-1-yl)-N-(thiazol-2-yl)propanamide] | 1.58 to 2.51 µM | 108 to 119%
3 | O=C(Nc1nccs1)[C@H](CC1CCCCC1)N1CCN(C(=S)Nc2ccccc2OC(F)(F)F)CC1=O [Example 136, (S)-3-cyclohexyl-2-(2-oxo-4-(2-(trifluoromethoxy)phenylcarbamothioyl)piperazin-1-yl)-N-(thiazol-2-yl)propanamide] | 0.794 to 1.26 µM | ≥ 119%
4 | O=C(Nc1nccs1)[C@H](CC1CCCCC1)N1CCN(S(=O)(=O)CCc2ccc(Cl)cc2)CC1=O [Example 98, (S)-2-(4-(4-chlorophenethylsulfonyl)-2-oxopiperazin-1-yl)-3-cyclohexyl-N-(thiazol-2-yl)propanamide] | 0.794 to 1.26 µM | ≤ 74%
5 | O=C(Nc1ncc(Cl)s1)[C@H](CC1CCOCC1)N1CCN(S(=O)(=O)c2cccc(F)c2)CC1=O [Example 150, (S)-N-(5-chlorothiazol-2-yl)-2-(4-(3-fluorophenylsulfonyl)-2-oxopiperazin-1-yl)-3-(tetrahydro-2H-pyran-4-yl)propanamide] | ≤ 0.631 µM | 108 to 119%
6 | O=C(Nc1ncc(Cl)s1)C(CC1CCOCC1)N1CCN(S(=O)(=O)C2CC2)CC1=O (centres unmarked) [Example 23, N-(5-chlorothiazol-2-yl)-2-(4-(cyclopropylsulfonyl)-2-oxopiperazin-1-yl)-3-(tetrahydro-2H-pyran-4-yl)propanamide] | 1.58 to 2.51 µM | ≥ 119%
7 | COc1cccc(C[C@@H](C(=O)Nc2nccs2)N2CCN(S(=O)(=O)C3CC3)CC2=O)c1 [Example 4, (S)-2-(4-(cyclopropylsulfonyl)-2-oxopiperazin-1-yl)-3-(3-methoxyphenyl)-N-(thiazol-2-yl)propanamide] | 1.58 to 2.51 µM | 74.1 to 97%
8 | O=C(Nc1ncc(Cl)s1)[C@H](CC1CCOCC1)N1CCN(S(=O)(=O)c2ccc(F)cc2)CC1=O [Example 34, (S)-N-(5-chlorothiazol-2-yl)-2-(4-(4-fluorophenylsulfonyl)-2-oxopiperazin-1-yl)-3-(tetrahydro-2H-pyran-4-yl)propanamide] | 1.58 to 2.51 µM | 97.1 to 107%
9 | O=C(Nc1nccs1)[C@H](CC1CCCCC1)N1CCN(C(=S)Nc2ccc(Cl)c(Cl)c2)CC1=O [Example 87, (S)-3-cyclohexyl-2-(4-(3,4-dichlorophenylcarbamothioyl)-2-oxopiperazin-1-yl)-N-(thiazol-2-yl)propanamide] | ≥ 3.16 µM | 74.1 to 97%
10 | O=C(Nc1nccs1)[C@H](CC1CCCCC1)N1CCN(S(=O)(=O)c2ccc(C(F)(F)F)cc2)CC1=O [Example 55, (S)-3-cyclohexyl-2-(2-oxo-4-(4-(trifluoromethyl)phenylsulfonyl)piperazin-1-yl)N-(thiazol-2-yl)propanamide] | 0.794 to 1.26 µM | ≤ 74%
11 | O=C(Nc1nccs1)[C@H](CC1CCCCC1)N1CCN(S(=O)(=O)N2CCCC2)CC1=O [Example 229, (S)-3-cyclohexyl-2-(2-oxo-4-(pyrrolidin-1-ylsulfonyl)piperazin-1-yl)-N-(thiazol-2-yl)propanamide] | ≤ 0.631 µM | 108 to 119%
12 | O=C(Nc1nccs1)[C@H](CC1CCCCC1)N1CCN(C(=S)Nc2ccc(Cl)cc2)CC1=O [Example 125, (S)-2-(4-(4-chlorophenylcarbamothioyl)-2-oxopiperazin-1-yl)-3-cyclohexyl-N-(thiazol-2-yl)propanamide] | ≥ 3.16 µM | 97.1 to 107%
13 | O=C(Nc1nccs1)[C@H](CC1CCCCC1)N1CCN(S(=O)(=O)Cc2ccc(C(F)(F)F)cc2)CC1=O [Example 210, (S)-3-cyclohexyl-2-(2-oxo-4-(4-(trifluoromethyl)benzylsulfonyl)piperazin-1-yl)-N-(thiazol-2-yl)propanamide] | ≥ 3.16 µM | ≤ 74%
14 | COc1ccc2nc(NC(=O)C(CC3CCOCC3)N3CCN(S(=O)(=O)C4CCCC4)CC3=O)sc2n1 (centres unmarked) [Example 29, 2-(4-(cyclopentylsulfonyl)-2-oxopiperazin-1-yl)-N-(5-methoxythiazolo[5,4-b]pyridin-2-yl)-3-(tetrahydro-2H-pyran-4-yl)propanamide] | 0.794 to 1.26 µM | 108 to 119%

Second part, the compound after the results:

Row | EC50 | Emax | Structure (SMILES)
15 | 1.58 to 2.51 µM | 108 to 119% | Cc1cc(S(=O)(=O)N2CCN([C@@H](CC3CCCCC3)C(=O)Nc3nccs3)C(=O)C2)c(C(F)(F)F)o1 [Example 160, (S)-3-cyclohexyl-2-(4-(5-methyl-2-(trifluoromethyl)furan-3-ylsulfonyl)-2-oxopiperazin-1-yl)-N-(thiazol-2-yl)propanamide]
16 | 0.794 to 1.26 µM | 97.1 to 107% | CCc1ccc(S(=O)(=O)N2CCN([C@@H](CC3CCCCC3)C(=O)Nc3nccs3)C(=O)C2)cc1 [Example 225, (S)-3-cyclohexyl-2-(4-(4-ethylphenylsulfonyl)-2-oxopiperazin-1-yl)-N-(thiazol-2-yl)propanamide]
17 | ≤ 0.631 µM | ≤ 74% | Cn1nc(C(F)(F)F)cc1-c1ccc(S(=O)(=O)N2CCN([C@@H](CC3CCCCC3)C(=O)Nc3nccs3)C(=O)C2)s1 [Example 193, (S)-3-cyclohexyl-2-(4-(5-(1-methyl-3-(trifluoromethyl)-1H-pyrazol-5-yl)thiophen-2-ylsulfonyl)-2-oxopiperazin-1-yl)-N-(thiazol-2-yl)propanamide]
18 | 0.794 to 1.26 µM | 108 to 119% | Cc1ccccc1S(=O)(=O)N1CCN([C@@H](CC2CCCCC2)C(=O)Nc2nccs2)C(=O)C1 [Example 218, (S)-3-cyclohexyl-2-(2-oxo-4-(o-tolylsulfonyl)piperazin-1-yl)-N-(thiazol-2-yl)propanamide]
19 | ≥ 3.16 µM | 97.1 to 107% | CC(=O)Nc1ccc(S(=O)(=O)N2CCN([C@@H](CC3CCCCC3)C(=O)Nc3nccs3)C(=O)C2)cc1 [Example 45, (S)-2-(4-(4-acetamidophenylsulfonyl)-2-oxopiperazin-1-yl)-3-cyclohexyl-N-(thiazol-2-yl)propanamide]
20 | 0.794 to 1.26 µM | 97.1 to 107% | COc1ccc(S(=O)(=O)N2CCN([C@@H](CC3CCCCC3)C(=O)Nc3nccs3)C(=O)C2)cc1 [Example 46, (S)-3-cyclohexyl-2-(4-(4-methoxyphenylsulfonyl)-2-oxopiperazin-1-yl)-N-(thiazol-2-yl)propanamide]
21 | 0.794 to 1.26 µM | ≤ 74% | Cc1ccc2sc(S(=O)(=O)N3CCN([C@@H](CC4CCCCC4)C(=O)Nc4nccs4)C(=O)C3)cc2c1 [Example 107, (S)-3-cyclohexyl-2-(4-(5-methylbenzo[b]thiophen-2-ylsulfonyl)-2-oxopiperazin-1-yl)-N-(thiazol-2-yl)propanamide]
22 | ≤ 0.631 µM | 74.1 to 97% | O=C(Nc1nccs1)[C@H](CC1CCCCC1)N1CCN(S(=O)(=O)c2ccco2)CC1=O [Example 108, (S)-3-cyclohexyl-2-(4-(furan-2-ylsulfonyl)-2-oxopiperazin-1-yl)-N-(thiazol-2-yl)propanamide]
